From ChEMBL document CHEMBL4373740, “Synthesis and biological evaluation of new MET inhibitors with 1,6-naphthyridinone scaffold” (Eur J Med Chem, 2020)

Assays:
HT-29 = assay: Antiproliferative activity against human HT-29 cells at 10 uM incubated for 72 hrs by MTT assay relative to control; format: functional; conditions: HT-29, 72 h
[1] = Antiproliferative activity against human NIH-H460 cells at 10 uM incubated for 72 hrs by MTT assay relative to control; format: functional; conditions: NIH-H460, 72 h
MKN-45 = assay: Antiproliferative activity against human MKN45 cells at 10 uM incubated for 72 hrs by MTT assay relative to control; format: functional; conditions: MKN-45, 72 h
[2] = Tmax in Sprague-Dawley rat at 2.5 mg/kg, iv measured for 5 min to 72 hrs by LC-MS/MS analysis; format: ADME, organism-based; conditions: in vivo
[3] = Mean residence time in Sprague-Dawley rat at 2.5 mg/kg, iv measured for 5 min to 72 hrs by LC-MS/MS analysis; format: ADME, organism-based; conditions: in vivo
in vitro = conditions: human, liver microsomes
[4] = Tmax in Sprague-Dawley rat at 10 mg/kg, ig measured for 15 min to 72 hrs by LC-MS/MS analysis; format: ADME, organism-based; conditions: in vivo, po
[5] = Cmax in Sprague-Dawley rat at 2.5 mg/kg, iv measured for 5 min to 72 hrs by LC-MS/MS analysis; format: ADME, organism-based; set-up: dose 2.5 mg/kg, route intravenous; conditions: in vivo
[6] = target: Vascular endothelial growth factor receptor 2 (Homo sapiens, UniProt P35968); assay: Inhibition of purified recombinant VEGFR2 kinase domain (unknown origin) using biotin as substrate preincubated for 5 mins followed by substrate addition and measured after 30 to 60 mins in presence of ATP by HTRF assay
Sequence of Vascular endothelial growth factor receptor 2 (P35968 whole entry, the tested form may be a part): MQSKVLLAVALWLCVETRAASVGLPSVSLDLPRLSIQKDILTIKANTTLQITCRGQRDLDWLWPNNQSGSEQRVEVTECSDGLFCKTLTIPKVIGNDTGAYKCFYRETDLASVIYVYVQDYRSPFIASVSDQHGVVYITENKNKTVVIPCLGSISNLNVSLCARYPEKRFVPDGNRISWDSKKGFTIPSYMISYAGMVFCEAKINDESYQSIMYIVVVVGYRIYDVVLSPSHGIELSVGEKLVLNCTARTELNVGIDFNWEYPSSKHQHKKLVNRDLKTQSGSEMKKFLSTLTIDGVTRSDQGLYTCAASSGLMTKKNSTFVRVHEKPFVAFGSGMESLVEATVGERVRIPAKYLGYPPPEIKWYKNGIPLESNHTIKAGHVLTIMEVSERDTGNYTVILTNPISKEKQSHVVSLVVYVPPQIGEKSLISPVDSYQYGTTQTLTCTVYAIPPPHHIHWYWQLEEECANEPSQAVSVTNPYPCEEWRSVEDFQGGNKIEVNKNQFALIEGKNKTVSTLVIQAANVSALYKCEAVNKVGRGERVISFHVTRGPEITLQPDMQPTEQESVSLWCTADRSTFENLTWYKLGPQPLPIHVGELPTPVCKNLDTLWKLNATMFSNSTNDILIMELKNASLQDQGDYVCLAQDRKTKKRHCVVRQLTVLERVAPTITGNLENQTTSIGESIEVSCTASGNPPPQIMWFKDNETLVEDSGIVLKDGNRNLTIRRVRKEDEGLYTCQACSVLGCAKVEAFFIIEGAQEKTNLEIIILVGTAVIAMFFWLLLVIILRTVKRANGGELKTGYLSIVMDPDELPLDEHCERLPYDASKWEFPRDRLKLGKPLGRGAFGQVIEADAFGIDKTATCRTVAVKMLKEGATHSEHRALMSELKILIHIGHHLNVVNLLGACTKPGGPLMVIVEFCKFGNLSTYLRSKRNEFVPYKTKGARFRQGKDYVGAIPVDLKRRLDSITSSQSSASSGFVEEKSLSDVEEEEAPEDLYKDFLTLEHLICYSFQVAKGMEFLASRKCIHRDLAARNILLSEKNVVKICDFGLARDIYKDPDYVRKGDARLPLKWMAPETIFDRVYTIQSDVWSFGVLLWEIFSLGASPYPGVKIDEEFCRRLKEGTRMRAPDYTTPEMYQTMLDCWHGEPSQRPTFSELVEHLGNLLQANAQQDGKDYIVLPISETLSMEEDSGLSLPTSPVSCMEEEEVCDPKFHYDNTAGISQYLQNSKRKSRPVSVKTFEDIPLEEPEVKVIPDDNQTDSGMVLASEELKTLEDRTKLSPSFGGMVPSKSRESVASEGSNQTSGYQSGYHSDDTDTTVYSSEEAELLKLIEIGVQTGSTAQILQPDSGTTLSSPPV

[7] = Mean residence time in Sprague-Dawley rat at 10 mg/kg, ig measured for 15 min to 72 hrs by LC-MS/MS analysis; format: ADME, organism-based; conditions: in vivo, po
[8] = Half life in Sprague-Dawley rat at 2.5 mg/kg, iv measured for 5 min to 72 hrs by LC-MS/MS analysis; format: ADME, organism-based; conditions: in vivo
[9] = Oral bioavailability in Sprague-Dawley rat at 10 mg/kg, ig measured for 15 min to 72 hrs by LC-MS/MS analysis; format: ADME, organism-based; conditions: in vivo
[10] = Cmax in Sprague-Dawley rat at 10 mg/kg, ig measured for 15 min to 72 hrs by LC-MS/MS analysis; format: ADME, organism-based; set-up: dose 10 mg/kg, route intragastric; conditions: in vivo, po
[11] = target: Hepatocyte growth factor receptor (Homo sapiens, UniProt P08581); assay: Inhibition of purified recombinant MET kinase domain (unknown origin) using biotin as substrate preincubated for 5 mins followed by substrate addition and measured after 30 to 60 mins in presence of ATP by HTRF assay
Sequence of Hepatocyte growth factor receptor (P08581 whole entry, the tested form may be a part): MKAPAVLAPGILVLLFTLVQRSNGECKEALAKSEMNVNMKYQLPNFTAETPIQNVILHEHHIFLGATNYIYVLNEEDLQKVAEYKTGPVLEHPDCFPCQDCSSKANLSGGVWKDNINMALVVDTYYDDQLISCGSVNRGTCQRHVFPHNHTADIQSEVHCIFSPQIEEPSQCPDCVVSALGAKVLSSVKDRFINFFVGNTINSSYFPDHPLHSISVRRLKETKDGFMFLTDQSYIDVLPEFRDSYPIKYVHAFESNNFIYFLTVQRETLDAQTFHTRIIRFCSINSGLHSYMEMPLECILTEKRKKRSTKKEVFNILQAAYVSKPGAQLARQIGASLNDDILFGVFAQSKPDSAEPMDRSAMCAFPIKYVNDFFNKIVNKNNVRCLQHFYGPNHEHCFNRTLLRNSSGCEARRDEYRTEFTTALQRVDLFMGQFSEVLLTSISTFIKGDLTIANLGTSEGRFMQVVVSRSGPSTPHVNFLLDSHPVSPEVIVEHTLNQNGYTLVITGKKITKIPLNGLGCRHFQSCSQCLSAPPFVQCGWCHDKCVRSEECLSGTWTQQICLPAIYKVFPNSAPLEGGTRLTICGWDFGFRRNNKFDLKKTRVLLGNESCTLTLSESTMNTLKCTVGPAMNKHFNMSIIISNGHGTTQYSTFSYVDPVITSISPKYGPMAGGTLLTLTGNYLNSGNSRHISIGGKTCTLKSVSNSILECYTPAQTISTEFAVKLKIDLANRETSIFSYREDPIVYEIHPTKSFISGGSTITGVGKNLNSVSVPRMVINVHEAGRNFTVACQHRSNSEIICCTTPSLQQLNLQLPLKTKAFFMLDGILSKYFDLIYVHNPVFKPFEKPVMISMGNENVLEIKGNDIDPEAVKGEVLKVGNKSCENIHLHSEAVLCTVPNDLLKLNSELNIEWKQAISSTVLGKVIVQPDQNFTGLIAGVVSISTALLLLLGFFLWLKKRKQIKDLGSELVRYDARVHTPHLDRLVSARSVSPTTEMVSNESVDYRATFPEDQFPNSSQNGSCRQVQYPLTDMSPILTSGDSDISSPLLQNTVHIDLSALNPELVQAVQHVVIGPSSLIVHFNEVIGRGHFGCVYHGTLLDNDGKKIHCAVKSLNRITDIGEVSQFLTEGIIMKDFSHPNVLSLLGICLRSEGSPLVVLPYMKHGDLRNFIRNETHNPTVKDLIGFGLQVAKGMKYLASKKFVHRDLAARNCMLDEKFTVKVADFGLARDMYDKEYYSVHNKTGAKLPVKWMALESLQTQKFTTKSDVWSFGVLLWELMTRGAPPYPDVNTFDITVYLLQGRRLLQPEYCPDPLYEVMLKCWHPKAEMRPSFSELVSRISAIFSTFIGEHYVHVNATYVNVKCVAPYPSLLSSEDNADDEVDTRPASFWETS

[12] = Clearance in Sprague-Dawley rat at 10 mg/kg, ig measured for 15 min to 72 hrs by LC-MS/MS analysis; format: ADME, organism-based; conditions: in vivo, po
[13] = Half life in Sprague-Dawley rat at 10 mg/kg, ig measured for 15 min to 72 hrs by LC-MS/MS analysis; format: ADME, organism-based; conditions: in vivo, po
[14] = AUC (0 to infinity) in Sprague-Dawley rat at 10 mg/kg, ig measured for 15 min to 72 hrs by LC-MS/MS analysis; format: ADME, organism-based; set-up: dose 10 mg/kg, time infinity, route intragastric; conditions: in vivo, po
[15] = AUC (0 to infinity) in Sprague-Dawley rat at 2.5 mg/kg, iv measured for 5 min to 72 hrs by LC-MS/MS analysis; format: ADME, organism-based; set-up: dose 2.5 mg/kg, route intravenous, time infinity; conditions: in vivo
[16] = Volume of distribution in Sprague-Dawley rat at 2.5 mg/kg, iv measured for 5 min to 72 hrs by LC-MS/MS analysis; format: ADME, organism-based; conditions: in vivo
[17] = Volume of distribution in Sprague-Dawley rat at 10 mg/kg, ig measured for 15 min to 72 hrs by LC-MS/MS analysis; format: ADME, organism-based; conditions: in vivo, po
[18] = Clearance in Sprague-Dawley rat at 2.5 mg/kg, iv measured for 5 min to 72 hrs by LC-MS/MS analysis; format: ADME, organism-based; conditions: in vivo
Homo sapiens = species on record: Homo sapiens; assay: Selectivity index, ratio of IC50 for purified recombinant VEGFR2 kinase domain (unknown origin) to IC50 for purified recombinant MET kinase domain (unknown origin)
[19] = Mean residence time in Sprague-Dawley rat at 1.0 mg/kg, iv measured for 5 min to 72 hrs by LC-MS/MS analysis; format: ADME, organism-based; conditions: in vivo
[20] = AUC (0 to infinity) in Sprague-Dawley rat at 5.0 mg/kg, ig measured for 15 min to 72 hrs by LC-MS/MS analysis; format: ADME, organism-based; set-up: dose 5 mg/kg, time infinity, route intragastric; conditions: in vivo, po
[21] = Volume of distribution in Sprague-Dawley rat at 1.0 mg/kg, iv measured for 5 min to 72 hrs by LC-MS/MS analysis; format: ADME, organism-based; conditions: in vivo
[22] = Half life in Sprague-Dawley rat at 1.0 mg/kg, iv measured for 5 min to 72 hrs by LC-MS/MS analysis; format: ADME, organism-based; conditions: in vivo
[23] = Volume of distribution in Sprague-Dawley rat at 5.0 mg/kg, ig measured for 15 min to 72 hrs by LC-MS/MS analysis; format: ADME, organism-based; conditions: in vivo, po
[24] = Mean residence time in Sprague-Dawley rat at 5.0 mg/kg, ig measured for 15 min to 72 hrs by LC-MS/MS analysis; format: ADME, organism-based; conditions: in vivo, po
[25] = Half life in Sprague-Dawley rat at 5.0 mg/kg, ig measured for 15 min to 72 hrs by LC-MS/MS analysis; format: ADME, organism-based; conditions: in vivo, po
[26] = Clearance in Sprague-Dawley rat at 5.0 mg/kg, ig measured for 15 min to 72 hrs by LC-MS/MS analysis; format: ADME, organism-based; conditions: in vivo, po
[27] = Cmax in Sprague-Dawley rat at 5.0 mg/kg, ig measured for 15 min to 72 hrs by LC-MS/MS analysis; format: ADME, organism-based; set-up: dose 5 mg/kg, route intragastric; conditions: in vivo, po
[28] = AUC (0 to infinity) in Sprague-Dawley rat at 1.0 mg/kg, iv measured for 5 min to 72 hrs by LC-MS/MS analysis; format: ADME, organism-based; set-up: dose 1 mg/kg, time infinity, route intravenous; conditions: in vivo
[29] = Oral bioavailability in Sprague-Dawley rat at 5.0 mg/kg, ig measured for 15 min to 72 hrs by LC-MS/MS analysis; format: ADME, organism-based; conditions: in vivo
[30] = Cmax in Sprague-Dawley rat at 1.0 mg/kg, iv measured for 5 min to 72 hrs by LC-MS/MS analysis; format: ADME, organism-based; set-up: dose 1 mg/kg, route intravenous; conditions: in vivo
[31] = Tmax in Sprague-Dawley rat at 5.0 mg/kg, ig measured for 15 min to 72 hrs by LC-MS/MS analysis; format: ADME, organism-based; conditions: in vivo, po
[32] = Clearance in Sprague-Dawley rat at 1.0 mg/kg, iv measured for 5 min to 72 hrs by LC-MS/MS analysis; format: ADME, organism-based; conditions: in vivo

Structure (SMILES)	inhibition at 10 µM (HT-29) [%]	inhibition at 10 µM [1] [%]	inhibition at 10 µM (MKN-45) [%]	half-life (in vitro) [h]	IC50 [6] [nM]	IC50 [11] [nM]	other results
COc1cc2nccc(Oc3ccc(NC(=O)C4(C(=O)Nc5ccc(F)cc5)CC4)cc3)c2cc1OC [CABOZANTINIB]	29	54.8	49.1				
Nc1nccc(Oc2ccc(Nc3nccc4[nH]cc(-c5ccc(F)cc5)c(=O)c34)cc2F)c1Cl	56.2	79.1	85.7	3.16	68	9.8	Tmax [2]: 1.8 min; MRT [3]: 0.3 h; Tmax [4]: 2.7 h; Cmax [5]: 16400 ng/mL; MRT [7]: 3 h; half-life [8]: 0.5 h; bioavailability [9]: 12%; Cmax [10]: 600 ng/mL; CL/F [12]: 83.3 mL/min/kg; half-life [13]: 1 h; AUC(0-inf) [14]: 2200 ng·h/mL; AUC(0-inf) [15]: 4500 ng·h/mL; Vd [16]: 0.4 L/kg; Vd [17]: 7.5 L/kg; clearance [18]: 10 mL/min/kg
CC(C)(O)Cn1cc(-c2ccc(F)cc2)c(=O)c2c(Nc3ccc(Oc4ccnc(NC(=O)C5CC5)c4)c(F)c3)nccc21	-2.6	67.4	44.3		> 30000	25.9	
O=C(Nc1cc(Oc2ccc(Nc3nccc4[nH]cc(-c5ccc(F)cc5)c(=O)c34)cc2F)ccn1)C1CCCCC1	8.7	72.1	55.2	1.34	> 3000	9.8	Ratio IC50 (Homo sapiens): > 306
CC(C)C(=O)Nc1cc(Oc2ccc(Nc3nccc4[nH]cc(-c5ccc(F)cc5)c(=O)c34)cc2F)ccn1	83.4	84.6	95.4		230	17.7	
O=C(Nc1cc(Oc2ccc(Nc3nccc4[nH]cc(-c5ccc(F)cc5)c(=O)c34)cc2F)ccn1)C1CC1	25.5	54.6	81.8	13.2	8.8	8.1	MRT [19]: 8.5 h; AUC(0-inf) [20]: 42200 ng·h/mL; Vd [21]: 0.7 L/kg; half-life [22]: 6.8 h; Vd [23]: 1.1 L/kg; MRT [24]: 11.4 h; half-life [25]: 6.4 h; CL/F [26]: 1.67 mL/min/kg; Cmax [27]: 2700 ng/mL; AUC(0-inf) [28]: 13500 ng·h/mL; bioavailability [29]: 63%; Cmax [30]: 1900 ng/mL; Tmax [31]: 7.3 h; clearance [32]: 1.33 mL/min/kg
O=C(CO)Nc1cc(Oc2ccc(Nc3nccc4[nH]cc(-c5ccc(F)cc5)c(=O)c34)cc2F)ccn1	18.5	53.6	63	7.23	58.9	9.9	
CC(=O)Nc1cc(Oc2ccc(Nc3nccc4[nH]cc(-c5ccc(F)cc5)c(=O)c34)cc2F)ccn1	36.8	58.2	77.1		38.1	21.4	
